Measured values: EP0435693B1, “Pharmaceutical compositions containing 3-oxygermylpropionic acid polymers for inhibiting the degeneration of cells” (SANWA KAGAKU KENKYUSHO CO., LTD., priority 1989, dated 1991)

Experiments:
Type in all cases: in vivo
ddy masculine mouse = assay: Amnesia induced by carbon dioxide, passive avoidance in bright/dark box; settings: Group B: SK-818 + Foot Shocks + CO₂ Gas, 10.0 mg/kg/day orally from 3 days before
Experimental: A ddy masculine mouse was encaged in a […] of a testing box (comprising bright and dark chambers, each measuring 15.0 x 17.5 x 18.5 cm and provided with an inlet/outlet combination of 6.0 x 6.0 cm, and the time which it took the animal to walk into the dark chamber (the reaction potential time during acquisition, hereinafter referred to as A.T.) was then measured. From just after the animal walked into the dark chamber, foot shocks of 2.5 mA were continuously applied to the animal through a floor grid with a shock generator scrambler, made by Astech Co., Ltd., until the animal walked into the bright chamber. Immediately after the acquisition trial, the animal was encaged in a desiccator, and 15 l/min of CO₂ gas were injected into the desiccator for 40 to 45 seconds for suffocation. After the animal was removed from the desiccator, artificial aspiration was immediately tried thereon. The animal was then put back in a home cage.
After 24 hours of the acquisition trial, the animal was again encaged in the bright chamber of the testing box to measure the time which it took the animal to walk into the dark chamber (or the reaction potential time during the retention trial, hereinafter referred to as R.T.). SK-818, in the form of a mixture with feed, had been administered orally to the animal from 3 days before at a dose of 10.0 mg/kg/day.

SD rats = assay: Acute toxicity test, per os, rats
From the text: (§1) With (a) the 3-oxygermylpropionic acid according to this invention (hereinafter called SK-818) and (b) the composition of Preparation Ex. 1, SD rats and mice were subjected to acute and subacute (chronic) toxicity tests in conventional manner. (Groups of animals, 8-10 per group, were used for experimentation).

Wistar masculine rats = assay: Relief of nephrotoxicity of mercuric chloride
Experimental: The effect of SK-818 on the impairment of kidney-function by mercuric chloride was examined, using blood-urinary nitrogen levels as an index.
Mercuric chloride was subcutaneously administered to Wistar masculine rats (seven weeks of age) 6-10 per group, at a dose of 1.2 mg/kg. From 24 hours after the administration till the lapse of 96 hours, the animals were permitted to freely drink an aqueous solution containing 2,400 ppm of SK-818 (at an average dose of 231±14 mg/kg). […]

mice = assay: Acute toxicity test, per os, mice
From the text: as §1

SD masculine rats = assay: Subacute toxicity, oral, three months
Experimental: as §1
(a) SK-818 and (b) the composition of Preparation Ex. 1 were administered orally to SD masculine rats at doses of 256, 380, 640, 1300, 1600 and 4000 mg/kg/day over three months to determine the doses at which there was no toxic influence on the animals and the animals were absolutely poisoned, respectively.

SD rats and mice = assay: Acute toxicity test, general symptoms
From the text: as §1
Between (a) SK-818 and (b) the composition of Preparation Ex. 1 there was no significant difference in acute toxicity.

MRL/1 masculine mice = assay: Prevention of spontaneous nephritis of MRL/1 mice; set-up: Blood-urinary nitrogen levels, BUN: unit not given here; settings: for Blood-urinary nitrogen levels, BUN: day following the final administration
Experimental: The action of SK-818 on preventing the development of spontaneous nephritis of MRL/1 mice (or an impairment of the functioning of the kidney asaociated with aging) was examined.
Given amounts (0.1 mg/kg, 1.0 mg/kg and 10.0 mg/kg a day) of SK-818, in the form of a mixture of the composition of Preparation Ex. 1 with feed, were administered orally MRL/1 masculine mice of six-week age (16 for each group) twice a week over 12 weeks. In the meantime, urinary protein was measured once a week; urinary protein levels exceeding 100 mg/dl were taken as positive. Examination was then made of how many animals became positive at the respective week-ages. Moreover, blood-urinary nitrogen levels were determined on the day following the final administration to make serological/physiological and pathological estimations of the action of SK-818 on nephritis.
The urinary protein and blood-urinary nitrogen levels were measured with Protein Pre-test (made by Wako Junyaku K.K.) and Urinary Nitrogen B-Test according to the urease/indophenol method (made by Wako Junyaku K.K.), respectively.

[1] = orally, daily over three months

## 3-oxygermylpropionic acid [SK-818]
Ddy masculine mouse
  A.T. (reaction potential time during acquisition): 48.5 ± 9.1 s
Ddy masculine mouse; 24 hours after acquisition
  R.T. (reaction potential time during the retention trial): 276.5 ± 19.3 s
SD rats; female
  LD50: 7,050 or more mg/kg
SD rats; male
  LD50: 7,700 or more mg/kg
Wistar masculine rats; 0 hour, mercuric chloride 1.2 mg/kg s.c.
  Blood-urinary nitrogen: 15.1 ± 0.4 mg/dL
Wistar masculine rats; 24 hours after mercuric chloride, drinking of 2400ppm aqueous solution starts at 24 hours
  Blood-urinary nitrogen: 31.9 ± 1.3 mg/dL
Wistar masculine rats; 48 hours after mercuric chloride, 2400ppm aqueous solution
  Blood-urinary nitrogen: 50.6 ± 9.8 mg/dL
Wistar masculine rats; 72 hours after mercuric chloride, 2400ppm aqueous solution
  Blood-urinary nitrogen: 45.9 ± 13.8 mg/dL
Wistar masculine rats; 92 hours after mercuric chloride, 2400ppm aqueous solution
  Blood-urinary nitrogen: 30.9 ± 9.4 mg/dL
mice; female
  LD50: 5,800 or more mg/kg
mice; male
  LD50: 5,600 or more mg/kg
SD masculine rats; At 4000 mg/kg, orally over three months
  mortality: some animals died
SD masculine rats; [1]
  dose at which the animals were absolutely poisoned: 1600 mg/kg
  dose which had no toxic influence on the animals: 256 mg/kg
SD rats and mice
  general symptoms: general symptoms of tranquilization, diarrhoea, vomiting and typhlectasis
MRL/1 masculine mice; 0.1 mg/kg, 16 week-age, positive = exceeding 100 mg/dl
  Number of animals with positive urinary protein levels: 4/15
MRL/1 masculine mice; 0.1 mg/kg, 17 week-age
  Number of animals with positive urinary protein levels: 7/15
MRL/1 masculine mice; 0.1 mg/kg, 18 week-age
  Number of animals with positive urinary protein levels: 10/15
MRL/1 masculine mice; 0.1 mg/kg
  Blood-urinary nitrogen levels, BUN: 32.2±1.6
MRL/1 masculine mice; 1 mg/kg, 16 week-age
  Number of animals with positive urinary protein levels: 4/15
MRL/1 masculine mice; 1 mg/kg, 17 week-age
  Number of animals with positive urinary protein levels: 6/15
MRL/1 masculine mice; 1 mg/kg, 18 week-age
  Number of animals with positive urinary protein levels: 8/15
MRL/1 masculine mice; 1 mg/kg
  Blood-urinary nitrogen levels, BUN: 35.5±3.3
MRL/1 masculine mice; 10 mg/kg, 16 week-age
  Number of animals with positive urinary protein levels: 2/15
MRL/1 masculine mice; 10 mg/kg, 17 week-age
  Number of animals with positive urinary protein levels: 4/15
MRL/1 masculine mice; 10 mg/kg, 18 week-age
  Number of animals with positive urinary protein levels: 8/15
MRL/1 masculine mice; 10 mg/kg
  Blood-urinary nitrogen levels, BUN: 29.3±1.7
MRL/1 masculine mice; At 10 mg/kg
  increase in the blood-urinary nitrogen levels: significantly inhibited
  increase in the urinary protein levels: remarkably inhibited
MRL/1 masculine mice; groups medicated with SK-818, control group 57 %
  glomeruli that become more morbid: 23-34%
